From ChEMBL document CHEMBL2396653, “Synthesis and antimycobacterial evaluation of N-substituted 5-chloropyrazine-2-carboxamides” (Bioorg Med Chem Lett, 2013)
In brackets after ≈: the same amount, converted by molar mass. Activity calls are given as the source filed them. The rule behind the calls is not given here.

Legend:
[1] = test system: Mycobacterium avium; test: Antimycobacterial activity against Mycobacterium avium CNCTC My 152/73 assessed as growth inhibition after 14 days by microdilution method; assay type: functional; settings: CNCTC My 152/73, 336 h
[2] = Lipophilicity, log K of the compound by HPLC analysis; assay type: physicochemical
[3] = test system: Nakaseomyces glabratus; test: Antifungal activity against Candida glabrata 20/I assessed as growth inhibition after 24 to 48 hrs by microbroth dilution method; assay type: functional, organism-based
[4] = Stability of the compound at pH 7; assay type: physicochemical; settings: buffer
[5] = test system: Candida albicans; test: Antifungal activity against Candida albicans ATCC 44859 assessed as growth inhibition after 24 to 48 hrs by microbroth dilution method; assay type: functional, organism-based
[6] = test system: Candida tropicalis; test: Antifungal activity against Candida tropicalis 156 assessed as growth inhibition after 24 to 48 hrs by microbroth dilution method; assay type: functional, organism-based
[7] = test system: Staphylococcus aureus; test: Antibacterial activity against methicillin-resistant Staphylococcus aureus H 5996/08 clinical isolate assessed as growth inhibition after 24 to 48 hrs by microbroth dilution method; assay type: functional, organism-based
[8] = test system: Mycobacterium avium; test: Antimycobacterial activity against Mycobacterium avium CNCTC My 80/72 assessed as growth inhibition after 14 days by microdilution method; assay type: functional; settings: CNCTC My 80/72, 336 h
[9] = test system: Mycobacterium kansasii; test: Antimycobacterial activity against Mycobacterium kansasii CNCTC My 235/80 assessed as growth inhibition after 14 days by microdilution method; assay type: functional; settings: CNCTC My 235/80, 336 h
[10] = test system: Lichtheimia corymbifera; test: Antifungal activity against Absidia corymbifera 272 assessed as growth inhibition after 24 to 48 hrs by microbroth dilution method; assay type: functional, organism-based
[11] = test system: Klebsiella pneumoniae; test: Antibacterial activity against Klebsiella pneumoniae D 11750/08 clinical isolate assessed as growth inhibition after 24 to 48 hrs by microbroth dilution method; assay type: functional, organism-based
[12] = test system: Aspergillus fumigatus; test: Antifungal activity against Aspergillus fumigatus 231 assessed as growth inhibition after 24 to 48 hrs by microbroth dilution method; assay type: functional, organism-based
[13] = test system: Klebsiella pneumoniae; test: Antibacterial activity against ESBL-positive Klebsiella pneumoniae J 14368/08 clinical isolate assessed as growth inhibition after 24 to 48 hrs by microbroth dilution method; assay type: functional, organism-based
[14] = test system: Escherichia coli; test: Antibacterial activity against Escherichia coli CCM 4517 assessed as growth inhibition after 24 to 48 hrs by microbroth dilution method; assay type: functional, organism-based
[15] = test system: Staphylococcus epidermidis; test: Antibacterial activity against Staphylococcus epidermidis H 6966/08 clinical isolate assessed as growth inhibition after 24 to 48 hrs by microbroth dilution method; assay type: functional, organism-based
[16] = test system: Staphylococcus aureus; test: Antibacterial activity against Staphylococcus aureus CCM 4516/08 assessed as growth inhibition after 24 to 48 hrs by microbroth dilution method; assay type: functional, organism-based
[17] = test system: Pichia kudriavzevii; test: Antifungal activity against Candida krusei E28 assessed as growth inhibition after 24 to 48 hrs by microbroth dilution method; assay type: functional, organism-based
[18] = test system: Mycobacterium tuberculosis; test: Antimycobacterial activity against Mycobacterium tuberculosis H37Rv assessed as growth inhibition after 14 days by microdilution method; assay type: functional; settings: 336 h
[19] = test system: Trichophyton mentagrophytes; test: Antifungal activity against Trichophyton mentagrophytes 445 assessed as growth inhibition after 72 to 120 hrs by microbroth dilution method; assay type: functional, organism-based
[20] = test system: Enterococcus; test: Antibacterial activity against Enterococcus sp. J 14365/08 clinical isolate assessed as growth inhibition after 24 to 48 hrs by microbroth dilution method; assay type: functional, organism-based
[21] = test system: Trichosporon asahii; test: Antifungal activity against Trichosporon asahii 1188 assessed as growth inhibition after 24 to 48 hrs by microbroth dilution method; assay type: functional, organism-based
[22] = test system: Pseudomonas aeruginosa; test: Antibacterial activity against Pseudomonas aeruginosa CCM 1961 assessed as growth inhibition after 24 to 48 hrs by microbroth dilution method; assay type: functional, organism-based

## Cc1ccc(CNC(=O)c2cnc(Cl)cn2)cc1
[1]
  MIC: > 100 µg/mL
[2]
  log K: 0.4199
[3]
  growth inhibition (GI): inactive
[4]
  Stability: Stable
[5]
  growth inhibition (GI): inactive
[6]
  growth inhibition (GI): inactive
[7]
  growth inhibition (GI): inactive
[8]
  MIC: > 100 µg/mL
[9]
  MIC: 3.13 µg/mL (≈ 12 µM)
[10]
  growth inhibition (GI): inactive
[11]
  growth inhibition (GI): inactive
[12]
  growth inhibition (GI): inactive
[13]
  growth inhibition (GI): inactive
[14]
  growth inhibition (GI): inactive
[15]
  growth inhibition (GI): inactive
[16]
  growth inhibition (GI): inactive
[17]
  growth inhibition (GI): inactive
[18]
  MIC: 25 µg/mL (≈ 95.5 µM)
[19]
  growth inhibition (GI): inactive
[20]
  growth inhibition (GI): inactive
[21]
  growth inhibition (GI): inactive
[22]
  growth inhibition (GI): inactive

## O=C(NCc1cccc(Cl)c1)c1cnc(Cl)cn1
[1]
  MIC: > 100 µg/mL
[2]
  log K: 0.4229
[3]
  growth inhibition (GI): inactive
[4]
  Stability: Stable
[5]
  growth inhibition (GI): inactive
[6]
  growth inhibition (GI): inactive
[7]
  growth inhibition (GI): inactive
[8]
  MIC: > 100 µg/mL
[9]
  MIC: 50 µg/mL (≈ 177 µM)
[10]
  growth inhibition (GI): inactive
[11]
  growth inhibition (GI): inactive
[12]
  growth inhibition (GI): inactive
[13]
  growth inhibition (GI): inactive
[14]
  growth inhibition (GI): inactive
[15]
  growth inhibition (GI): inactive
[16]
  growth inhibition (GI): inactive
[17]
  growth inhibition (GI): inactive
[18]
  MIC: 25 µg/mL (≈ 88.6 µM)
[19]
  growth inhibition (GI): inactive
[20]
  growth inhibition (GI): inactive
[21]
  growth inhibition (GI): inactive
[22]
  growth inhibition (GI): inactive

## O=C(Nc1cccc([N+](=O)[O-])c1)c1cnc(Cl)cn1
[1]
  MIC: > 100 µg/mL
[2]
  log K: 0.3443
[3]
  growth inhibition (GI): inactive
[4]
  Stability: Stable
[5]
  growth inhibition (GI): inactive
[6]
  growth inhibition (GI): inactive
[7]
  growth inhibition (GI): inactive
[8]
  MIC: > 100 µg/mL
[10]
  growth inhibition (GI): inactive
[11]
  growth inhibition (GI): inactive
[12]
  growth inhibition (GI): inactive
[13]
  growth inhibition (GI): inactive
[14]
  growth inhibition (GI): inactive
[15]
  growth inhibition (GI): inactive
[16]
  growth inhibition (GI): inactive
[17]
  growth inhibition (GI): inactive
[18]
  MIC: 3.13 µg/mL (≈ 11.2 µM)
[19]
  growth inhibition (GI): inactive
[20]
  growth inhibition (GI): inactive
[21]
  growth inhibition (GI): inactive
[22]
  growth inhibition (GI): inactive

## O=C(Nc1ccccc1Cl)c1cnc(Cl)cn1
[1]
  MIC: > 100 µg/mL
[2]
  log K: 0.8193
[3]
  growth inhibition (GI): inactive
[4]
  Stability: Stable
[5]
  growth inhibition (GI): inactive
[6]
  growth inhibition (GI): inactive
[7]
  growth inhibition (GI): inactive
[8]
  MIC: > 100 µg/mL
[10]
  growth inhibition (GI): inactive
[11]
  growth inhibition (GI): inactive
[12]
  growth inhibition (GI): inactive
[13]
  growth inhibition (GI): inactive
[14]
  growth inhibition (GI): inactive
[15]
  growth inhibition (GI): inactive
[16]
  growth inhibition (GI): inactive
[17]
  growth inhibition (GI): inactive
[18]
  MIC: 0.78 µg/mL (≈ 2.91 µM)
[19]
  growth inhibition (GI): inactive
[20]
  growth inhibition (GI): inactive
[21]
  growth inhibition (GI): inactive
[22]
  growth inhibition (GI): inactive

## OC(Cn1cncn1)(Cn1cncn1)c1ccc(F)cc1F
[3]
  growth inhibition (GI): Active
[5]
  growth inhibition (GI): Active
[6]
  growth inhibition (GI): Active
[10]
  growth inhibition (GI): Active
[12]
  growth inhibition (GI): Active
[17]
  growth inhibition (GI): Active
[19]
  growth inhibition (GI): Active
[21]
  growth inhibition (GI): Active

## NC(=O)c1cnccn1 [PYRAZINAMIDE]
[1]
  MIC: > 100 µg/mL
[8]
  MIC: > 100 µg/mL
[9]
  MIC: > 100 µg/mL
[18]
  MIC: 12.5 µg/mL (≈ 102 µM)

## NNC(=O)c1ccncc1 [ISONIAZID]
[1]
  MIC: 6.25 µg/mL (≈ 45.6 µM)
[8]
  MIC: 25 µg/mL (≈ 182 µM)
[9]
  MIC: 12.5 µg/mL (≈ 91.1 µM)
[18]
  MIC: 1.56 µg/mL (≈ 11.4 µM)
